Results as given in patent US20230167073A1 (Teijin Pharma Limited, priority 2020, published 2023).

Target: T1, Human TRPC6 (Homo sapiens, UniProt Q9Y210)
T1 construct: expressed in transfected cells
T1 sequence (Q9Y210 1-931): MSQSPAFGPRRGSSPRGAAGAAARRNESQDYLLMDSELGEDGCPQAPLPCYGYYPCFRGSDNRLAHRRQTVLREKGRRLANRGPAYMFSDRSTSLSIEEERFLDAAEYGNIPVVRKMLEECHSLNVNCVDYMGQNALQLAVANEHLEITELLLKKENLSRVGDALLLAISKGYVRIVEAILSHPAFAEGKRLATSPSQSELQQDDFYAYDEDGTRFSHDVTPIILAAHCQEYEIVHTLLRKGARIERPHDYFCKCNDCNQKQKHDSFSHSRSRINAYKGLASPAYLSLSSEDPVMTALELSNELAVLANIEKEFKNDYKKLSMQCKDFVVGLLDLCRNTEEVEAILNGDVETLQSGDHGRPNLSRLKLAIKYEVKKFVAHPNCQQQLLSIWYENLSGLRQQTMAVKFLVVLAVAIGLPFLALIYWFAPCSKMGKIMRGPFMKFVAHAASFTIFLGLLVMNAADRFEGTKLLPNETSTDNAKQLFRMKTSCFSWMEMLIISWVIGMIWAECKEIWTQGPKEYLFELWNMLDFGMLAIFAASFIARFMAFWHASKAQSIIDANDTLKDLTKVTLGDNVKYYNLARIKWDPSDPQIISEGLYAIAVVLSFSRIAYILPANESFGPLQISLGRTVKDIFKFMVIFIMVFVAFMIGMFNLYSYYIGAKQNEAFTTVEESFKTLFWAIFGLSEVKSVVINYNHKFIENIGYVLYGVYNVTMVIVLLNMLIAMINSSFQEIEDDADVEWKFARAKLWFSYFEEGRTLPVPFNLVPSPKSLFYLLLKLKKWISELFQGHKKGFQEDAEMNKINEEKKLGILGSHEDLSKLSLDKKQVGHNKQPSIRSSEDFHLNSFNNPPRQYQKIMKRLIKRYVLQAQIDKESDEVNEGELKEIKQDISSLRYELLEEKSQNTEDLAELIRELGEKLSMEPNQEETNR
Test: Evaluation of TRPC6 channel inhibitory activity (1), FLIPR Calcium 5 Assay Kit, OAG stimulation (Compound Nos. 1-1293)
Assay type: cell-based
Conditions: Human TRPC6 stably-expressing cells, OAG 30 μM, FLIPR Calcium 5 Assay Kit; read-out: Inhibitory activity (pIC50 class) (converted)
In short: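 Cells stably expressing human TRPC6, plated 24 h before, were loaded 30 min with Calcium 5 dye plus probenecid in HEPES-HBSS. Compound was added 20 min before OAG (30 μM final) and fluorescence tracked on FLIPR. Inhibition normalised to no-compound and no-compound/no-OAG wells; pIC50 from four-parameter fit, reported as +/++/+++ categories.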

| SMILES | IC50 [nM] |
| --- | --- |
| N#Cc1ccc(-c2ncc(CCN)cn2)c(Cn2cc(N3CCOCC3)cn2)c1 [compound 1200, 4-[5-(2-aminoethyl)pyrimidin-2-yl]-3-[(4-morpholin-4-ylpyrazol-1-yl)methyl]benzonitrile] | 10 to 1000 |
| N#Cc1ccc(-c2ncc(CCN)cn2)c(Cn2cc(-c3ccccc3)cn2)c1 [compound 1201, 4-[5-(2-aminoethyl)pyrimidin-2-yl]-3-[(4-phenylpyrazol-1-yl)methyl]benzonitrile] | 10 to 1000 |
| Cc1nn(-c2ccccn2)cc1Cc1cc(C#N)ccc1-c1ncc(CCN)cn1 [compound 1202, 4-[5-(2-aminoethyl)pyrimidin-2-yl]-3-[(3-methyl-1-pyridin-2-ylpyrazol-4-yl)methyl]benzonitrile] | < 10 |
| Cc1nn(-c2ccccn2)cc1Cc1cc(C#N)ccc1-c1ccc(CCN)cn1 [compound 1203, 4-[5-(2-aminoethyl)pyridin-2-yl]-3-[(3-methyl-1-pyridin-2-ylpyrazol-4-yl)methyl]benzonitrile] | < 10 |
| Cc1cc(Cc2cc(C#N)ccc2-c2ncc(CCN)cn2)cc(N2CCOCC2)n1 [compound 1204, 4-[5-(2-aminoethyl)pyrimidin-2-yl]-3-[(2-methyl-6-morpholin-4-ylpyridin-4-yl)methyl]benzonitrile] | 10 to 1000 |
| Cn1nc(-c2ccccn2)cc1Cc1cc(C#N)ccc1-c1ncc(CN)cn1 [compound 1205, 4-[5-(aminomethyl)pyrimidin-2-yl]-3-[(2-methyl-5-pyridin-2-ylpyrazol-3-yl)methyl]benzonitrile] | < 10 |
| CCN(CC)c1cc(Cc2cc(C#N)ccc2-c2ncc(CN)cn2)n(C)n1 [compound 1206, 4-[5-(aminomethyl)pyrimidin-2-yl]-3-[[5-(diethylamino)-2-methylpyrazol-3-yl]methyl]benzonitrile] | < 10 |
| CCN(CC)c1cc(Cc2cc(C#N)ccc2-c2ncc(CCN)cn2)n(C)n1 [compound 1207, 4-[5-(2-aminoethyl)pyrimidin-2-yl]-3-[[5-(diethylamino)-2-methylpyrazol-3-yl]methyl]benzonitrile] | < 10 |
| CCN(CC)c1cc(Cc2cc(C#N)ccc2-c2ccc(CCN)cn2)n(C)n1 [compound 1208, 4-[5-(2-aminoethyl)pyridin-2-yl]-3-[[5-(diethylamino)-2-methylpyrazol-3-yl]methyl]benzonitrile] | < 10 |
| CN(C)c1cc(Cc2cc(C#N)ccc2-c2ncc(CN)cn2)n(C)n1 [compound 1209, 4-[5-(aminomethyl)pyrimidin-2-yl]-3-[[5-(dimethylamino)-2-methylpyrazol-3-yl]methyl]benzonitrile] | 10 to 1000 |
| Cn1nc(N2CCCC2)cc1Cc1cc(C#N)ccc1-c1ncc(CN)cn1 [compound 1210, 4-[5-(aminomethyl)pyrimidin-2-yl]-3-[(2-methyl-5-pyrrolidin-1-ylpyrazol-3-yl)methyl]benzonitrile] | < 10 |
| Cn1nc(N2CCCC2)cc1Cc1cc(C#N)ccc1-c1ncc(CCN)cn1 [compound 1211, 4-[5-(2-aminoethyl)pyrimidin-2-yl]-3-[(2-methyl-5-pyrrolidin-1-ylpyrazol-3-yl)methyl]benzonitrile] | < 10 |
| Cn1nc(N2CCCC2)cc1Cc1cc(C#N)ccc1-c1ccc(CCN)cn1 [compound 1212, 4-[5-(2-aminoethyl)pyridin-2-yl]-3-[(2-methyl-5-pyrrolidin-1-ylpyrazol-3-yl)methyl]benzonitrile] | < 10 |
| Cn1nc(N2CCCCC2)cc1Cc1cc(C#N)ccc1-c1ncc(CN)cn1 [compound 1213, 4-[5-(aminomethyl)pyrimidin-2-yl]-3-[(2-methyl-5-piperidin-1-ylpyrazol-3-yl)methyl]benzonitrile] | 10 to 1000 |
| Cn1nc(-c2ccccn2)cc1Cc1cc(C#N)ccc1-c1ncc(CCN)cn1 [compound 1214, 4-[5-(2-aminoethyl)pyrimidin-2-yl]-3-[(2-methyl-5-pyridin-2-ylpyrazol-3-yl)methyl]benzonitrile] | < 10 |
| Cn1nc(-c2ccccn2)cc1Cc1cc(C#N)ccc1-c1ccc(CCN)cn1 [compound 1215, 4-[5-(2-aminoethyl)pyridin-2-yl]-3-[(2-methyl-5-pyridin-2-ylpyrazol-3-yl)methyl]benzonitrile] | < 10 |
| CN(C)c1cc(Cc2cc(C#N)ccc2-c2ncc(CCN)cn2)n(C)n1 [compound 1216, 4-[5-(2-aminoethyl)pyrimidin-2-yl]-3-[[5-(dimethylamino)-2-methylpyrazol-3-yl]methyl]benzonitrile] | 10 to 1000 |
| CN(C)c1cc(Cc2cc(C#N)ccc2-c2ccc(CCN)cn2)n(C)n1 [compound 1217, 4-[5-(2-aminoethyl)pyridin-2-yl]-3-[[5-(dimethylamino)-2-methylpyrazol-3-yl]methyl]benzonitrile] | < 10 |
| Cn1nc(N2CCCCC2)cc1Cc1cc(C#N)ccc1-c1ncc(CCN)cn1 [compound 1218, 4-[5-(2-aminoethyl)pyrimidin-2-yl]-3-[(2-methyl-5-piperidin-1-ylpyrazol-3-yl)methyl]benzonitrile] | < 10 |
| Cn1nc(N2CCCCC2)cc1Cc1cc(C#N)ccc1-c1ccc(CCN)cn1 [compound 1219, 4-[5-(2-aminoethyl)pyridin-2-yl]-3-[(2-methyl-5-piperidin-1-ylpyrazol-3-yl)methyl]benzonitrile] | < 10 |
| NCCc1cnc(-c2ccc(F)cc2Cc2cnn(-c3ccccn3)c2)nc1 [compound 1220, 2-[2-[4-fluoro-2-[(1-pyridin-2-ylpyrazol-4-yl)methyl]phenyl]pyrimidin-5-yl]ethanamine] | > 1000 |
| CC(C)Cn1cc(Cc2cc(F)ccc2-c2ccc(CCN)cn2)cn1 [compound 1221, 2-[6-[4-fluoro-2-[[1-(2-methylpropyl)pyrazol-4-yl]methyl]phenyl]pyridin-3-yl]ethanamine] | 10 to 1000 |
| CC(C)Cn1cc(Cc2cc(F)ccc2-c2ncc(CCN)cn2)cn1 [compound 1222, 2-[2-[4-fluoro-2-[[1-(2-methylpropyl)pyrazol-4-yl]methyl]phenyl]pyrimidin-5-yl]ethanamine] | 10 to 1000 |
| CC(C)Cn1cc(Cc2cc(F)ccc2-c2ncc(CN)cn2)cn1 [compound 1223, [2-[4-fluoro-2-[[1-(2-methylpropyl)pyrazol-4-yl]methyl]phenyl]pyrimidin-5-yl]methanamine] | > 1000 |
| Cc1nn(CC(C)C)cc1Cc1cc(F)ccc1-c1ncc(CCN)cn1 [compound 1224, 2-[2-[4-fluoro-2-[[3-methyl-1-(2-methylpropyl)pyrazol-4-yl]methyl]phenyl]pyrimidin-5-yl]ethanamine] | 10 to 1000 |
| Cc1nn(CC(C)C)cc1Cc1cc(F)ccc1-c1ncc(CN)cn1 [compound 1225, [2-[4-fluoro-2-[[3-methyl-1-(2-methylpropyl)pyrazol-4-yl]methyl]phenyl]pyrimidin-5-yl]methanamine] | 10 to 1000 |
| C=C(c1cc(N2CCOCC2)nc(C)n1)c1cc(C#N)ccc1-c1ccc(CCN)cc1 [compound 1228, 4-[4-(2-aminoethyl)phenyl]-3-[1-(2-methyl-6-morpholin-4-ylpyrimidin-4-yl)ethenyl]benzonitrile] | 10 to 1000 |
| N#Cc1ccc(-c2ccc(CCN)cc2)c(C(O)c2cc(-c3ccccc3)no2)c1 (stereo not shown) [compound 1229, 4-[4-(2-aminoethyl)phenyl]-3-[hydroxy-(3-phenyl-1,2-oxazol-5-yl)methyl]benzonitrile] | 10 to 1000 |
